Test results as given in patent US9346820B2, “HIV-1 protease inhibitors having gem-di-fluoro bicyclic P2-ligands” (priority 2013, dated 2016).
Where two headings read alike, the source gives them in different places.

Legend:
HIV-1LAI = test: Drug susceptibility MTT assay, MT-2 cells exposed to HIV-1LAI; type: cell-based; conditions: for Selectivity Index: ratio of CC50 to EC50 against HIV-1LAI
Protocol: (§1) The susceptibility of HIV-1LAI to various drugs was determined as previously described with minor modifications. Briefly, MT-2 cells (10^4/ml) were exposed to 100 50% tissue culture infectious doses (TCID50) of HIV-1LAI in the presence or absence of various concentrations of drugs in 96-well microculture plates and were incubated at 37° C. for 7 days. After 100 μl of the medium was removed from each well, 3-(4,5-dimetylthiazol-2-yl)-2,5-diphenyltetrazolium bromide (MTT) solution (10 μl, 7.5 mg/ml in phosphate-buffered saline) was added to each well in the plate, followed by incubation at 37° C. for 2 h. […] All assays were performed in duplicate or triplicate. […] To determine the sensitivity of primary HIV-1 isolates to drugs, phytohemagglutinin-stimulated peripheral blood mononuclear cells (PHA-PBMC) (10^6/ml) were exposed to 50 TCID50 of each primary HIV-1 isolate and cultured in the presence or absence of various concentrations of drugs in 10-fold serial dilutions in 96-well microculture plates. In determining the drug susceptibility of certain laboratory HIV-1 strains, MT-4 cells were employed as target cells as previously described with minor modifications. In brief, MT-4 cells (10^5/ml) were exposed to 100 TCID50 of drug-resistant HIV-1 strains in the presence or absence of various concentrations of drugs and were incubated at 37° C. On day 7 of culture, the supernatants were harvested and the amounts of p24 Gag protein were determined by using a fully automated chemiluminescent enzyme immunoassay system (Lumipulse F: Fujirebio Inc., Tokyo). […] All assays were performed in duplicate or triplicate. PHA-PBMs were derived from a single donor in each independent experiment. Thus, for obtaining the data, three different donors were recruited.

HIV-1MDR/B = test: microbe, parasite or virus in culture; type: cell-based; conditions: for EC50: Human immunodeficiency virus 1, read-out: EC50 HIV-1MDR/B (X4); for fold change of EC50 HIV-1MDR/B vs HIV-1ERS104pre: number in parentheses
Protocol: (§2) All primary HIV-1 strains were passaged once or twice in 3-day-old phytohemagglutinin activated peripheral blood mononuclear cells (PHA-PBM), and the culture supernatants were stored at −80° C. until use.
as §1

HIV-1MDR/C = test: microbe, parasite or virus in culture; type: cell-based; conditions: for EC50: Human immunodeficiency virus 1, read-out: EC50 HIV-1MDR/C (X4); for fold change of EC50 HIV-1MDR/C vs HIV-1ERS104pre: number in parentheses
Protocol: as §2, §1

HIV-1MDR/G = test: microbe, parasite or virus in culture; type: cell-based; conditions: for EC50: Human immunodeficiency virus 1, read-out: EC50 HIV-1MDR/G (X4); for fold change of EC50 HIV-1MDR/G vs HIV-1ERS104pre: number in parentheses
Protocol: as §2, §1

HIV-1MDR/JSL = test: microbe, parasite or virus in culture; type: cell-based; conditions: for EC50: Human immunodeficiency virus 1, read-out: EC50 HIV-1MDR/JSL (R5); for fold change of EC50 HIV-1MDR/JSL vs HIV-1ERS104pre: number in parentheses
Protocol: as §2, §1

HIV-1MDR/MM = test: microbe, parasite or virus in culture; type: cell-based; conditions: for EC50: Human immunodeficiency virus 1, read-out: EC50 HIV-1MDR/MM (R5); for fold change of EC50 HIV-1MDR/MM vs HIV-1ERS104pre: number in parentheses
Protocol: as §2, §1

HIV-1MDR/TM = test: microbe, parasite or virus in culture; type: cell-based; conditions: for EC50: Human immunodeficiency virus 1, read-out: EC50 HIV-1MDR/TM (X4); for fold change of EC50 HIV-1MDR/TM vs HIV-1ERS104pre: number in parentheses
Protocol: as §2, §1

HIV-1NL4-3 = test: p24 Gag production inhibition in MT-4 cells, wild-type laboratory strain; type: cell-based
Protocol: as §1

HIV-1APV^R5μM = test: microbe, parasite or virus in culture; type: cell-based; conditions: for EC50: Human immunodeficiency virus 1, MT4, read-out: EC50 HIV-1APV^R5μM; for fold change of EC50 HIV-1APV^R5μM vs HIV-1NL4-3: number in parentheses
Protocol: as §1

HIV-1ATV^R5μM = test: microbe, parasite or virus in culture; type: cell-based; conditions: for EC50: Human immunodeficiency virus 1, MT4, read-out: EC50 HIV-1ATV^R5μM; for fold change of EC50 HIV-1ATV^R5μM vs HIV-1NL4-3: number in parentheses
Protocol: as §1

HIV-1LPV^R5μM = test: microbe, parasite or virus in culture; type: cell-based; conditions: for EC50: Human immunodeficiency virus 1, MT4, read-out: EC50 HIV-1LPV^R5μM; for fold change of EC50 HIV-1LPV^R5μM vs HIV-1NL4-3: number in parentheses
Protocol: as §1

HIV-1SQV^R5μM = test: microbe, parasite or virus in culture; type: cell-based; conditions: for EC50: Human immunodeficiency virus 1, MT4, read-out: EC50 HIV-1SQV^R5μM; for fold change of EC50 HIV-1SQV^R5μM vs HIV-1NL4-3: number in parentheses
Protocol: as §1

HIV-1GRL05010^RP10 = test: microbe, parasite or virus in culture; type: cell-based; conditions: for EC50: Human immunodeficiency virus 1, MT4, read-out: EC50 HIV-1GRL05010^RP10; for fold change of EC50 HIV-1GRL05010^RP10 vs HIV-1NL4-3: number in parentheses
Protocol: as §1
The amounts of p24 were measured every two days for up to 7 days.

in vitro = conditions: rat and monkey
Protocol: The BBB Kit™ was kept at −80° C. until thawing on day 0 of the experiments. Nutritional medium was added to both brain and blood sides of the wells. This solution consists of DMEM F-12 medium with FCS 10% v/v, heparin 100 μg/ml, basic fibroblast growth factor (bFGF) 1.5 ng/ml, insulin 5 μg/ml, transferrin 5 μg/ml, sodium selenite 5 ng/ml, hydrocortisone 500 nM and gentamycin 50 μg/ml. Fresh medium was added 3 hours after thawing following the manufacturer's instructions, and 24 hours later. The plates were incubated at 37° C. until day 4 of the experiment when the condition of astrocytes was checked under a light microscope. Following this, the integrity of the collagen-coated membrane was verified by the measurement of the transendothelial electrical resistance (TEER) using an ohmmeter provided by the manufacturer. […] Detailed information regarding the components of the BBB Kit as well as its mechanisms can be seen by accessing the manufacturer's website http://www.pharmacocell.co.jp/en/bbb/index_e.html.
Standard curves were generated for each compound on a light spectrophotometer as previously described. 100 μM of each compound was added to the luminal (blood side) of the wells, incubated at 37° C. for 30 minutes and then, the amount of drug that crossed the in vitro BBB was collected and measured under a light spectrophotometer at 230 nanometer absorbances.
Papp was calculated using the following mathematical formula: […]
This model (BBB Kit™) is thought to represent an in vitro BBB model for drug transport assays, permitting an adequate cross-talk of the cell lines involved and provide a way to test an apparent passage of small molecules across the BBB as previously described by Nakagawa et al. (41). […] The concentrations of each compound that permeated into the abluminal interface (termed “brain side”) were determined using a spectrophotometer, 30 min after the addition of each drug to the wells.
The mathematical formula used for the calculation of Papp is described in Materials and Methods.

[1] = Human immunodeficiency virus 1, MT2, read-out: EC50 HIV-1LAI, MT-2 cells, 100 TCID50, MTT assay
[2] = read-out: EC50 HIV-1LAI, MT-2 cells, 100 TCID50, MTT assay
[3] = Human immunodeficiency virus 1, MT4, read-out: EC50 HIV-1NL4-3

Row | Structure (SMILES) | Selectivity Index (HIV-1LAI) | EC50 (HIV-1MDR/B) [nM] | fold change of EC50 HIV-1MDR/B vs HIV-1ERS104pre (HIV-1MDR/B) [fold] | EC50 (HIV-1MDR/C) [nM] | fold change of EC50 HIV-1MDR/C vs HIV-1ERS104pre (HIV-1MDR/C) [fold] | EC50 (HIV-1MDR/G) [nM] | fold change of EC50 HIV-1MDR/G vs HIV-1ERS104pre (HIV-1MDR/G) [fold] | EC50 (HIV-1MDR/JSL) [nM] | fold change of EC50 HIV-1MDR/JSL vs HIV-1ERS104pre (HIV-1MDR/JSL) [fold] | EC50 (HIV-1MDR/MM) [nM] | fold change of EC50 HIV-1MDR/MM vs HIV-1ERS104pre (HIV-1MDR/MM) [fold] | EC50 (HIV-1MDR/TM) [nM] | fold change of EC50 HIV-1MDR/TM vs HIV-1ERS104pre (HIV-1MDR/TM) [fold] | EC50 (HIV-1NL4-3; [3]) [nM] | EC50 (HIV-1APV^R5μM) [nM] | EC50 (HIV-1ATV^R5μM) [nM] | fold change of EC50 HIV-1ATV^R5μM vs HIV-1NL4-3 (HIV-1ATV^R5μM) [fold] | EC50 (HIV-1LPV^R5μM) [nM] | EC50 (HIV-1SQV^R5μM) [nM] | EC50 (HIV-1GRL05010^RP10) [nM] | further results
1 | COC(=O)N[C@H](C(=O)N[C@@H](Cc1ccccc1)[C@@H](O)CN(Cc1ccc(-c2ccccn2)cc1)NC(=O)[C@@H](NC(=O)OC)C(C)(C)C)C(C)(C)C [ATV, Atazanavir] | 5,720 | 450 | 214 | 430 | 204 | 42 | 19 | > 1000 | > 476 | 81 | 38 | 56 | 24 | 4.7 | 660 ± 20 | > 1000 | > 250 | 33 | > 1000 | 95 | EC50 (HIV-1LAI; [1]): 5 to 30 nM; EC50 (HIV-1LAI; [2]): 5 ± 1 nM; fold change of EC50 HIV-1LPV^R5μM vs HIV-1NL4-3 (HIV-1LPV^R5μM): 8 fold; fold change of EC50 HIV-1SQV^R5μM vs HIV-1NL4-3 (HIV-1SQV^R5μM): > 250 fold; fold change of EC50 HIV-1GRL05010^RP10 vs HIV-1NL4-3 (HIV-1GRL05010^RP10): 24 fold; Papp at 30 min, 100 μM (in vitro; Papp): 15.4 ×10⁻⁶ cm/s
2 | COc1ccc(S(=O)(=O)N(CC(C)C)C[C@@H](O)[C@H](Cc2ccccc2)NC(=O)OC2CO[C@H]3OCC(F)(F)[C@@H]23)cc1 (stereo partly shown) [GRL-04810] | 21,875 | 14 | 7 | 2 | 1 | 4 | 2 | 21 | 10 | 2 | 1 | 4 | 2 |  | 430 | 20 | 36 | 30 | 130 | 29 | EC50 (HIV-1LAI; Human immunodeficiency virus 1, MT2, MT-2 cells, 100 TCID50, MTT assay, read-out: EC50 HIV-1LAI): 0.8 nM; EC50 (HIV-1NL4-3; Human immunodeficiency virus 1, MT4, MT-4 cells, p24 Gag endpoint, read-out: EC50 HIV-1NL4-3): 0.5 nM; fold change of EC50 HIV-1APV^R5μM vs HIV-1NL4-3 (HIV-1APV^R5μM): 860 fold; fold change of EC50 HIV-1LPV^R5μM vs HIV-1NL4-3 (HIV-1LPV^R5μM): 66 fold; fold change of EC50 HIV-1SQV^R5μM vs HIV-1NL4-3 (HIV-1SQV^R5μM): 260 fold; fold change of EC50 HIV-1GRL05010^RP10 vs HIV-1NL4-3 (HIV-1GRL05010^RP10): 58 fold; Papp at 30 min, 100 μM (in vitro; Papp): 47.8 ×10⁻⁶ cm/s
3 | CC(C)(C)NC(=O)[C@@H]1C[C@@H]2CCCC[C@@H]2CN1C[C@@H](O)[C@H](Cc1ccccc1)NC(=O)[C@H](CC(N)=O)NC(=O)c1ccc2ccccc2n1 [SQV, Saquinavir] | 843 | 350 | 90 | 310 | 78 | 39 | 10 | 530 | 133 | 110 | 27 | 100 | 25 | 37 | 90 | 460 | 12 | 25 | > 1000 | 36 | fold change of EC50 HIV-1APV^R5μM vs HIV-1NL4-3 (HIV-1APV^R5μM): 2 fold; fold change of EC50 HIV-1LPV^R5μM vs HIV-1NL4-3 (HIV-1LPV^R5μM): 1 fold; fold change of EC50 HIV-1SQV^R5μM vs HIV-1NL4-3 (HIV-1SQV^R5μM): > 25 fold; fold change of EC50 HIV-1GRL05010^RP10 vs HIV-1NL4-3 (HIV-1GRL05010^RP10): 1 fold; Papp at 30 min, 100 μM (in vitro; Papp): 4.9 ×10⁻⁶ cm/s
4 | CC(C)CN(C[C@@H](O)[C@H](Cc1ccccc1)NC(=O)O[C@H]1CO[C@H]2OCC[C@H]21)S(=O)(=O)c1ccc(N)cc1 [DRV, darunavir] |  |  |  | 5 |  | 14 |  | 25 |  | 10 |  | 30 |  | 4 | 510 | 50 |  | 32 | 40 | 37 | EC50 (HIV-1LAI; [1]): 5 to 30 nM; EC50 (HIV-1LAI; [2]): 5 ± 1 nM; Papp at 30 min, 100 μM (in vitro): 9.9 ×10⁻⁶ cm/s
